Laboratory results reported in PubChem BioAssay (NCI).
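Here, GI50 denotes the concentration required for 50% inhibition of growth. The concentration for full growth arrest is given as TGI.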

What was measured:
Experiment in all cases: growth of human tumour cells (NCI), 384-well format
[1] = tested on: T-47D breast
[2] = tested on: SF-295 CNS
[3] = tested on: HCT-116 colon
[4] = tested on: NCI-H23 lung
[5] = tested on: RXF 393 renal
[6] = tested on: HOP-62 NSCLC
[7] = tested on: UO-31 renal
[8] = tested on: OVCAR-8 ovarian
[9] = tested on: MALME-3M melanoma
[10] = tested on: MCF7 breast
[11] = tested on: UACC-62 melanoma
[12] = tested on: HCC-2998 colon
[13] = tested on: IGROV1 ovarian
[14] = tested on: SN12C renal
[15] = tested on: HS 578T breast
[16] = tested on: KM12 colon
[17] = tested on: EKVX NSCLC
[18] = tested on: U251 glioblastoma
[19] = tested on: SNB-75 CNS
[20] = tested on: NCI-H522 lung
[21] = tested on: MDA-MB-231 breast
[22] = tested on: OVCAR-4 ovarian
[23] = tested on: NCI-H322M lung
[24] = tested on: TK-10 renal
[25] = tested on: LOX IMVI melanoma
[26] = tested on: MDA-MB-435 melanoma
[27] = tested on: NCI-H226 lung
[28] = tested on: SK-MEL-5 melanoma
[29] = tested on: 786-0 renal
[30] = tested on: MOLT-4 leukemia
[31] = tested on: SF-539 CNS
[32] = tested on: NCI/ADR-RES ovarian
[33] = tested on: M14 melanoma
[34] = tested on: A549 NSCLC
[35] = tested on: MDA-MB-468 breast
[36] = tested on: NCI-H460 NSCLC
[37] = tested on: HCT-15 colon
[38] = tested on: SK-OV-3 ovarian
[39] = tested on: HOP-92 NSCLC
[40] = tested on: A498 renal
[41] = tested on: CCRF-CEM leukemia
[42] = tested on: K-562 leukemia
[43] = tested on: SF-268 CNS
[44] = tested on: ACHN renal
[45] = tested on: HT29 colon
[46] = tested on: UACC-257 melanoma
[47] = tested on: DU-145 prostate
[48] = tested on: SW-620 colon
[49] = tested on: CAKI-1 renal
[50] = tested on: COLO 205 colon
[51] = tested on: PC-3 prostate
[52] = tested on: OVCAR-3 ovarian
[53] = tested on: SK-MEL-28 melanoma
[54] = tested on: BT-549 breast

Cc1cc(C(=O)NOCCO)c(Nc2ccc(I)cc2F)n(C)c1=O
GI50 [1]: > 100 µM | TGI [1]: > 100 µM | GI50 [2]: 65.7 µM | TGI [2]: > 100 µM | GI50 [3]: < 0.01 µM | TGI [3]: 0.121 µM | GI50 [4]: < 0.01 µM | TGI [4]: 0.0435 µM | GI50 [5]: 0.0582 µM | TGI [5]: > 100 µM | GI50 [6]: < 0.01 µM | TGI [6]: > 100 µM | GI50 [7]: 0.0404 µM | TGI [7]: > 100 µM | GI50 [8]: 32 µM | TGI [8]: > 100 µM | GI50 [9]: < 0.01 µM | TGI [9]: < 0.01 µM | GI50 [10]: > 100 µM | TGI [10]: > 100 µM | GI50 [11]: < 0.01 µM | TGI [11]: < 0.01 µM | GI50 [12]: < 0.01 µM | TGI [12]: < 0.01 µM | GI50 [13]: < 0.01 µM | TGI [13]: > 100 µM | GI50 [14]: < 0.01 µM | TGI [14]: 48.7 µM | GI50 [15]: 0.0264 µM | TGI [15]: > 100 µM | GI50 [16]: < 0.01 µM | TGI [16]: > 100 µM | GI50 [17]: 0.0243 µM | TGI [17]: > 100 µM | GI50 [18]: 0.0391 µM | TGI [18]: > 100 µM | GI50 [19]: 0.18 µM | TGI [19]: > 100 µM | GI50 [20]: 33.2 µM | TGI [20]: > 100 µM | GI50 [21]: < 0.01 µM | TGI [21]: 0.138 µM | GI50 [22]: > 100 µM | TGI [22]: > 100 µM | GI50 [23]: < 0.01 µM | TGI [23]: > 100 µM | GI50 [24]: 0.0521 µM | TGI [24]: > 100 µM | GI50 [25]: < 0.01 µM | TGI [25]: 0.116 µM | GI50 [26]: < 0.01 µM | TGI [26]: > 100 µM | GI50 [27]: 0.0389 µM | TGI [27]: 94.4 µM | GI50 [28]: < 0.01 µM | TGI [28]: > 100 µM | GI50 [29]: 0.0446 µM | TGI [29]: > 100 µM | GI50 [30]: > 100 µM | TGI [30]: > 100 µM | GI50 [31]: 0.052 µM | TGI [31]: > 100 µM | GI50 [32]: > 100 µM | TGI [32]: > 100 µM | GI50 [33]: < 0.01 µM | TGI [33]: < 0.01 µM | GI50 [34]: 0.0118 µM | TGI [34]: 74.2 µM | GI50 [35]: 49.7 µM | TGI [35]: > 100 µM | GI50 [36]: < 0.01 µM | TGI [36]: > 100 µM | GI50 [37]: 0.145 µM | TGI [37]: > 100 µM | GI50 [38]: > 100 µM | TGI [38]: > 100 µM | GI50 [39]: 0.0157 µM | TGI [39]: 0.125 µM | GI50 [40]: 35.7 µM | TGI [40]: > 100 µM | GI50 [41]: > 100 µM | TGI [41]: > 100 µM | GI50 [42]: 0.0114 µM | TGI [42]: > 100 µM | GI50 [43]: > 100 µM | TGI [43]: > 100 µM | GI50 [44]: 22.2 µM | TGI [44]: > 100 µM | GI50 [45]: < 0.01 µM | TGI [45]: > 100 µM | GI50 [46]: < 0.01 µM | TGI [46]: < 0.01 µM | GI50 [47]: 4.72 µM | TGI [47]: > 100 µM | GI50 [48]: < 0.01 µM | TGI [48]: > 100 µM | GI50 [49]: 0.012 µM | TGI [49]: > 100 µM | GI50 [50]: < 0.01 µM | TGI [50]: 0.0132 µM | GI50 [51]: > 100 µM | TGI [51]: > 100 µM | GI50 [52]: 62.9 µM | TGI [52]: > 100 µM | GI50 [53]: < 0.01 µM | TGI [53]: < 0.01 µM | GI50 [54]: 20.4 µM | TGI [54]: > 100 µM
